According to ChEMBL document CHEMBL5380835, “Discovery of Clinically Used Octenidine as NRAS Repressor That Effectively Inhibits NRAS-Mutant Melanoma” (J Med Chem, 2023):
Active and inactive are the calls of the source. The rule behind the calls is not given here.

Key:
SK-MEL-2 [1] = experiment: Synergistic cytotoxicity against human SK-MEL-2 cells expressing NRAS mutant assessed as combination index measured for 48 hrs in presence of MEK-162 by MTT assay; type: functional
SK-MEL-2 [2] = experiment: Synergistic cytotoxicity against human SK-MEL-2 cells expressing NRAS mutant assessed as combination index measured for 48 hrs in presence of LY3214996 by MTT assay; type: functional
[3] = Binding affinity to 3'-FAM-labeled to NRAS RNA G-quadruplex 5'-r(UGUGGGAGGGGCGGGUCUGGG)-3' (unknown origin) assessed as dissociation constant by fluorescence quenching assay
SK-MEL-2 [4] = experiment: Downregulation of KRAS protein level in human SK-MEL-2 cells upto 1.5 uM incubated for 48 hrs by Western blot analysis; type: functional, cell-based
SK-MEL-2 [5] = experiment: Downregulation of NRAS protein translation in human SK-MEL-2 cells incubated for 24 hrs by Western blot analysis; type: functional, cell-based; settings: dose <= 1.5 µM
[6] = Toxicity in BALB/c mouse xenografted with human SK-MEL-2 cells assessed as change in viscera pattern at 1 mg/kg/day, ip administered for 30 days by HE staining based analysis; type: organism-based; settings: in vivo, 720 h, time 30 day
SK-MEL-2 [7] = experiment: Cytotoxicity against human SK-MEL-2 cells upto 10 uM in presence of CQ; type: functional, cell-based
SK-MEL-2 [8] = experiment: Cytotoxicity against human SK-MEL-2 cells expressing Tet-on NRAS Q61R assessed as cell growth inhibition in presence of doxycycline; type: functional, cell-based
SK-MEL-2 [9] = experiment: Downregulation of phosphorylated mTOR in human SK-MEL-2 cells expressing NRAS mutant at 1.5 uM by Western blot analysis; type: functional, cell-based; settings: time <= 48.0 hrs, TDE = time-dependent effect
SK-MEL-2 [10] = experiment: Downregulation of NRAS expression in human SK-MEL-2 cells xenografted in BALB/c nude mouse at 1 mg/kg/day, ip administered for 30 days by IHC analysis; type: functional, organism-based; settings: time 30.0 day
SK-MEL-2 [11] = experiment: Cytotoxicity against human SK-MEL-2 cells expressing Tet-on NRAS Q61R assessed as cell growth inhibition; type: functional, cell-based
SK-MEL-2 [12] = experiment: Antitumor activity against human SK-MEL-2 cells xenografted in BALB/c nude mouse assessed as reduction in tumor weight at 1 mg/kg/day, ip administered for 30 days by electronic caliper method; type: functional, organism-based; settings: time 30.0 day
SK-MEL-2 [13] = experiment: Induction of apoptosis in human SK-MEL-2 cells assessed as late apoptotic cells at 1.5 uM measured after 24 hrs by PI/FITC Annexin V staining based flow cytometry; type: functional, cell-based
SK-MEL-2 [14] = experiment: Antitumor activity against human SK-MEL-2 cells xenografted in BALB/c nude mouse assessed as tumor growth inhibition at 1 mg/kg/day, ip by electronic caliper method; type: functional, organism-based; settings: time 30.0 day, TDE = time-dependent effect
[15] = Toxicity in BALB/c mouse xenografted with human SK-MEL-2 cells assessed as change in body weight at 1 mg/kg/day, ip administered for 30 days; type: organism-based; settings: in vivo, 720 h, time 30 day
[16] = Stabilization of NRAS RNA G-quadruplex 5'-r(UGUGGGAGGGGCGGGUCUGGG)-3' (unknown origin) at 10 uM
SK-MEL-2 [17] = experiment: Antiproliferative activity against human SK-MEL-2 cells assessed as cell growth inhibition incubated for 24 hrs by EdU assay; type: functional, cell-based; settings: SK-MEL-2, 24 h
SK-MEL-2 [18] = experiment: Antitumor activity against human SK-MEL-2 cells xenografted in BALB/c nude mouse assessed as T/C ratio at 1 mg/kg/day, ip administered for 30 days relative to control; type: functional; settings: time 30 day
SK-MEL-2 [19] = experiment: Antiproliferative activity against human SK-MEL-2 cells assessed as cell growth inhibition incubated for 48 hrs by EdU assay; type: functional, cell-based; settings: SK-MEL-2, 48 h
DNA = experiment: Binding affinity to total DNA (unknown origin) by TO displacement assay; type: nucleic-acid assay
SK-MEL-2 [20] = experiment: Downregulation of phosphorylated mTOR in human SK-MEL-2 cells expressing NRAS mutant incubated for 48 hrs by Western blot analysis; type: functional, cell-based; settings: dose <= 1.5 µM
[21] = Disruption of DHX36/NRAS RNA G-quadruplex 5'-r(UGUGGGAGGGGCGGGUCUGGG)-3' (unknown origin) using RNA substrate incubated for 1 hr by ELISA method
SK-MEL-2 [22] = experiment: Cytotoxicity against human SK-MEL-2 cells expressing NRAS mutant assessed as cell growth inhibition upto 50 uM measured for 12 to 96 hrs by MTT assay; type: functional, cell-based; settings: time 12-96 hrs
SK-MEL-2 [23] = experiment: Downregulation of phosphorylated AKT in human SK-MEL-2 cells expressing NRAS mutant incubated for 48 hrs by Western blot analysis; type: functional, cell-based; settings: dose <= 1.5 µM
RNA [UNDEFINED MUTATION] = experiment: Binding affinity to NRAS RNA mutant G-quadruplex 5'-r(UGUAAGAGAAGCGAGUCUGAG)-3' (unknown origin) by TO displacement assay; type: nucleic-acid assay
SK-MEL-2 [24] = experiment: Induction of cell cycle arrest in human SK-MEL-2 cells assessed as accumulation at G2/M phase at 1.5 uM measured after 48 hrs by PI staining based analysis; type: functional
SK-MEL-2 [25] = experiment: Antiproliferative activity against human SK-MEL-2 cells assessed as inhibition of cell survival upto 50 uM incubated for 24 to 96 hrs by MTT assay; type: functional, cell-based; settings: time 24-96 hrs
SK-MEL-2 [26] = experiment: Cytotoxicity against human SK-MEL-2 cells assessed as inhibition of cell viability treated for 48 hrs measured after 48 hrs; type: functional, cell-based; settings: SK-MEL-2, 48 h
SK-MEL-2 [27] = experiment: Induction of autophagy in human SK-MEL-2 cells assessed as […] at 1.5 uM measured upto 48 hrs by Western bot analysis; type: functional, cell-based
SK-MEL-2 [28] = experiment: Suppression of NRAS protein translation in human SK-MEL-2 cells upto 1.5 uM incubated for 48 hrs by Western blot analysis; type: functional, cell-based
SK-MEL-2 [29] = experiment: Antitumor activity against human SK-MEL-2 cells xenografted in BALB/c nude mouse assessed as tumor growth inhibition at 1 mg/kg/day, ip administered for 30 days relative to control; type: functional; settings: SK-MEL-2, 720 h, time 30 day, read-out: TGI
[30] = Binding affinity to 5'-FAM-labeled to NRAS RNA G-quadruplex 5'-r(UGUGGGAGGGGCGGGUCUGGG)-3' (unknown origin) assessed as dissociation constant by fluorescence quenching assay
RNA = experiment: Binding affinity to total RNA (unknown origin) by TO displacement assay; type: nucleic-acid assay
[31] = Binding affinity to NRAS RNA G-quadruplex 5'-r(UGUGGGAGGGGCGGGUCUGGG)-3' (unknown origin) by TO displacement assay
SK-MEL-2 [32] = experiment: Antiproliferative activity against human SK-MEL-2 cells assessed as cell growth inhibition incubated for 12 hrs by EdU assay; type: functional, cell-based; settings: SK-MEL-2, 12 h
SK-MEL-2 [33] = experiment: Cytotoxicity against human SK-MEL-2 cells assessed as inhibition of cell viability treated for 48 hrs measured after 24 hrs; type: functional, cell-based
SK-MEL-2 [34] = experiment: Downregulation of phosphorylated ERK in human SK-MEL-2 cells expressing NRAS mutant incubated for 48 hrs by Western blot analysis; type: functional, cell-based; settings: dose <= 1.5 µM
SK-MEL-2 [35] = experiment: Cytotoxicity against human SK-MEL-2 cells expressing NRAS mutant assessed as cell growth inhibition incubated for 48 hrs by MTT assay; type: functional, cell-based; settings: SK-MEL-2, 48 h
SK-MEL-2 [36] = experiment: Antiproliferative activity against human SK-MEL-2 cells assessed as inhibition of colony formation at 1.5 uM measured after 10 days by crystal violet staining based assay relative to control; type: functional; settings: SK-MEL-2, 240 h, time 10 day
SK-MEL-2 [37] = experiment: Cytotoxicity against human SK-MEL-2 cells overexpressing Tet-on NRAS Q61R assessed as cell growth inhibition in presence of doxycycline; type: functional, cell-based
SK-MEL-2 [38] = experiment: Cytotoxicity against human SK-MEL-2 cells upto 10 uM in presence of 3mA; type: functional, cell-based
SK-MEL-2 [39] = experiment: Cytotoxicity against human SK-MEL-2 cells assessed as cell growth inhibition incubated for 24 hrs by MTT assay; type: functional, cell-based; settings: SK-MEL-2, 24 h
SK-MEL-2 [40] = experiment: Induction of cell cycle arrest in human SK-MEL-2 cells assessed as accumulation at S phase at 1.5 uM measured after 24 hrs by PI staining based analysis; type: functional
SK-MEL-2 [41] = experiment: Cytotoxicity against human SK-MEL-2 cells assessed as inhibition of cell viability treated for 72 hrs measured after 72 hrs; type: functional, cell-based; settings: SK-MEL-2, 72 h
SK-MEL-2 [42] = experiment: Downregulation of phosphorylated ERK in human SK-MEL-2 cells expressing NRAS mutant at 1.5 uM by Western blot analysis; type: functional, cell-based; settings: time <= 48.0 hrs, TDE = time-dependent effect
SK-MEL-2 [43] = experiment: Cytotoxicity against human SK-MEL-2 cells assessed as inhibition of cell viability treated for 72 hrs measured after 24 hrs; type: functional, cell-based
SK-MEL-2 [44] = experiment: Downregulation of phosphorylated MEK in human SK-MEL-2 cells expressing NRAS mutant incubated for 48 hrs by Western blot analysis; type: functional, cell-based; settings: dose <= 1.5 µM
SK-MEL-2 [45] = experiment: Cytotoxicity against human SK-MEL-2 cells overexpressing Tet-on NRAS Q61R assessed as cell growth inhibition; type: functional, cell-based
HEK293 = experiment: Binding affinity to NRAS RNA G-quadruplex 5'-r(UGUGGGAGGGGCGGGUCUGGG)-3' (unknown origin) transfected in HEK293 cells assessed as decrease in NRAS […] upto 1.5 uM incubated for 24 hrs by Dual luciferase reporter assay; type: functional, cell-based
[46] = Binding affinity to NRAS RNA G-quadruplex 5'-r(UGUGGGAGGGGCGGGUCUGGG)-3' (unknown origin) assessed as decrease in TO fluorescence at 0.25 uM by TO displacement assay
SK-MEL-2 [47] = experiment: Disruption of DHX36/NRAS RNA G-quadruplex 5'-r(UGUGGGAGGGGCGGGUCUGGG)-3' in human SK-MEL-2 cells at 1.5 uM incubated for 24 hrs by RNA Immunoprecipitation assay; type: cell-based

NC1(c2ccc(-c3nc4ccn5c(=O)[nH]nc5c4cc3-c3ccccc3)cc2)CCC1 [MK-2206]
CI (SK-MEL-2 [1]): 0.5
CI (SK-MEL-2 [2]): 0.5

CCCCCCCCN=c1ccn(CCCCCCCCCCn2ccc(=NCCCCCCCC)cc2)cc1.Cl.Cl [OCTENIDINE HYDROCHLORIDE]
Kd [3]: 0.23 µM
Activity (SK-MEL-2 [4]): inactive
Activity (SK-MEL-2 [5]): Dose-Dependent Effect
Activity [6]: Non-Toxic
Activity (SK-MEL-2 [7]): Active
IC50 (SK-MEL-2 [8]): 12.4 µM
Activity (SK-MEL-2 [9]): Tde
Activity (SK-MEL-2 [10]): Active
IC50 (SK-MEL-2 [11]): 6.3 µM
Activity (SK-MEL-2 [12]): Active
Activity (SK-MEL-2 [13]): Active
Activity (SK-MEL-2 [14]): Tde
Activity [15]: Non-Toxic
Activity [16]: inactive
IC50 (SK-MEL-2 [17]): 1.08 µM
T/C (SK-MEL-2 [18]): 38.5%
IC50 (SK-MEL-2 [19]): 0.49 µM
Activity (DNA): inactive
Activity (SK-MEL-2 [20]): Dose-Dependent Effect
IC50 [21]: 2.4 µM
inhibition (SK-MEL-2 [22]): Active
Activity (SK-MEL-2 [23]): Dose-Dependent Effect
Activity (RNA [UNDEFINED MUTATION]): inactive
Activity (SK-MEL-2 [24]): Active
inhibition (SK-MEL-2 [25]): Active
IC50 (SK-MEL-2 [26]): 2.1 µM
Activity (SK-MEL-2 [27]): Active
Activity (SK-MEL-2 [28]): Active
inhibition in vivo at 1 mg/kg/day (SK-MEL-2 [29]): 52.4%
Kd [30]: 0.49 µM
Activity (RNA): Active
EC50 [31]: 1.6 µM
IC50 (SK-MEL-2 [32]): 2.05 µM
IC50 (SK-MEL-2 [33]): 2.11 µM
Activity (SK-MEL-2 [34]): Dose-Dependent Effect
IC50 (SK-MEL-2 [35]): 1.34 µM
inhibition at 1.5 µM (SK-MEL-2 [36]): 100%
Activity (SK-MEL-2 [37]): Active
Activity (SK-MEL-2 [38]): Active
IC50 (SK-MEL-2 [39]): 2.34 µM
Activity (SK-MEL-2 [40]): Active
IC50 (SK-MEL-2 [41]): 0.46 µM
Activity (SK-MEL-2 [42]): Tde
IC50 (SK-MEL-2 [43]): 0.48 µM
Activity (SK-MEL-2 [44]): Dose-Dependent Effect
Activity (SK-MEL-2 [45]): Active
Activity (HEK293): Active
Activity [46]: Active
Activity (SK-MEL-2 [47]): Active
